According to paper PMC10694292, “Increased sinusoidal export of drug glucuronides is a compensative mechanism in liver cirrhosis of mice” (Frontiers in Pharmacology, 2023):
≈ marks a conversion by molar mass, not a printed value. Where two headings read alike, the source gives them in different places.

Experiments:
[1] = mouse, in vivo
[2] = rats; ref Fukuda et al., 2008; cited from earlier work
OATP1B1 = system: OATP1B1; set-up: method as in Nakai et al., 2001; settings: human, experimental; ref Nakai et al., 2001; cited from earlier work
[3] = cited from earlier work
[4] = rat; ref Fukuda et al., 2008; cited from earlier work
[5] = ref Thiel et al., 2015, cited from earlier work
[6] = humans; ref Everett et al., 1991; cited from earlier work

Mean fraction of dose excreted to urine [1]: Less than 1%
Fraction of dose in urine (24 h), cirrhotic vs control mice ([1]; iv): increased significantly
SMILES: CC[C@H](C)C(=O)O[C@H]1C[C@H](O)C=C2C=C[C@H](C)[C@H](CC[C@@H](O)C[C@@H](O)CC(=O)O)[C@H]21 [Pravastatin, pravastatin]
Dose found in bile [2]: about 60%
Km (OATP1B1): 11.5 µM
Solubility ([3]; DrugBank, ref Wishart et al., 2017): 10000 µg/mL (≈ 23.6 mM)
Lipophilicity ([3]; MSDS, ref Wishart et al., 2017): 0.59
Lipophilicity ([3]; experimental pH=5, ref Serajuddin et al., 1991): 1.6
Lipophilicity ([3]; experimental pH=7, ref Serajuddin et al., 1991): -0.23
Lipophilicity ([3]; human, optimized, ref Lippert et al., 2012): 0.82
pKa (Acid) ([3]; ref Wishart et al., 2017, Puttegowda et al., 2016): 4.2
Fraction unbound [4]: 0.672
Vmax ([5]; Oatp1b2, optimized for mice with measured human Km): 2.5 µmol/L/min
Fraction unbound ([5]; mouse, optimized (talinolol: possibly optimized)): 0.73
Dose recovered unchanged from urine [6]: about 41%
